Results: patent US20230333121A1, “METHODS AND COMPOSITIONS RELATING TO BIOMARKERS FOR NEURODEGENERATIVE DISEASES” (ANACALYPSIS THERAPEUTICS, IKE, priority 2020, published 2023)

Target: T1, pS935-LRRK2 (Homo sapiens, UniProt Q5S007)
T1 construct: fresh PBMCs from healthy volunteer donors; endogenous in cells; host or cells: fresh and cryopreserved PBMCs from healthy volunteer donors
Experiment: pS935-LRRK2 ELISA on freshly isolated PBMCs from healthy volunteers
Assay type: cell-based
Conditions: increasing concentrations, 1 hour (FIG. 3C)
Description: Phosphorylation of LRRK2 at the Ser935 residue by ELISA was assessed. For each sample, the signal corresponding to pS935-LRRK2 was normalized to its corresponding value of total LRRK2 (in ng/ml). Increasing amounts of recombinant human full-length LRRK2 was bound to parallel ELISA plates using the c41-2 clone for capture, and detected using total (N241A; for normalization) or phosphorylated (pS935-LRRK2, UDD2) antibodies (FIG. 3A). […] Freshly isolated PBMCs from healthy volunteers were treated with increasing concentrations of the kinase inhibitor PF-475 for 1 hour, and subjected to pS935-LRRK2 ELISA (FIG. 3C). […] In contrast, in PBMC extracts from carriers of the G2019S mutation, with and without PD, there was a non-significant trend towards lower levels of pS935-LRRK2 compared to healthy controls (FIG. 3E). The values of all G2019S carriers are pooled for comparison against healthy controls (FIG. 3F). Levels of pS935-LRRK2 and various clinical parameters were compared (FIG. 3G). In iPD patients, there was no correlation between pS935-LRRK2 and the motor function scale UPDRS-III (not shown); however, performance on the cognitive function test, MoCA, was negatively correlated with pS935-LRRK2 levels in iPD patients (FIG. 3G; right panel) and healthy controls (FIG. 3G; center panel).

T1 sequence (Q5S007 whole entry): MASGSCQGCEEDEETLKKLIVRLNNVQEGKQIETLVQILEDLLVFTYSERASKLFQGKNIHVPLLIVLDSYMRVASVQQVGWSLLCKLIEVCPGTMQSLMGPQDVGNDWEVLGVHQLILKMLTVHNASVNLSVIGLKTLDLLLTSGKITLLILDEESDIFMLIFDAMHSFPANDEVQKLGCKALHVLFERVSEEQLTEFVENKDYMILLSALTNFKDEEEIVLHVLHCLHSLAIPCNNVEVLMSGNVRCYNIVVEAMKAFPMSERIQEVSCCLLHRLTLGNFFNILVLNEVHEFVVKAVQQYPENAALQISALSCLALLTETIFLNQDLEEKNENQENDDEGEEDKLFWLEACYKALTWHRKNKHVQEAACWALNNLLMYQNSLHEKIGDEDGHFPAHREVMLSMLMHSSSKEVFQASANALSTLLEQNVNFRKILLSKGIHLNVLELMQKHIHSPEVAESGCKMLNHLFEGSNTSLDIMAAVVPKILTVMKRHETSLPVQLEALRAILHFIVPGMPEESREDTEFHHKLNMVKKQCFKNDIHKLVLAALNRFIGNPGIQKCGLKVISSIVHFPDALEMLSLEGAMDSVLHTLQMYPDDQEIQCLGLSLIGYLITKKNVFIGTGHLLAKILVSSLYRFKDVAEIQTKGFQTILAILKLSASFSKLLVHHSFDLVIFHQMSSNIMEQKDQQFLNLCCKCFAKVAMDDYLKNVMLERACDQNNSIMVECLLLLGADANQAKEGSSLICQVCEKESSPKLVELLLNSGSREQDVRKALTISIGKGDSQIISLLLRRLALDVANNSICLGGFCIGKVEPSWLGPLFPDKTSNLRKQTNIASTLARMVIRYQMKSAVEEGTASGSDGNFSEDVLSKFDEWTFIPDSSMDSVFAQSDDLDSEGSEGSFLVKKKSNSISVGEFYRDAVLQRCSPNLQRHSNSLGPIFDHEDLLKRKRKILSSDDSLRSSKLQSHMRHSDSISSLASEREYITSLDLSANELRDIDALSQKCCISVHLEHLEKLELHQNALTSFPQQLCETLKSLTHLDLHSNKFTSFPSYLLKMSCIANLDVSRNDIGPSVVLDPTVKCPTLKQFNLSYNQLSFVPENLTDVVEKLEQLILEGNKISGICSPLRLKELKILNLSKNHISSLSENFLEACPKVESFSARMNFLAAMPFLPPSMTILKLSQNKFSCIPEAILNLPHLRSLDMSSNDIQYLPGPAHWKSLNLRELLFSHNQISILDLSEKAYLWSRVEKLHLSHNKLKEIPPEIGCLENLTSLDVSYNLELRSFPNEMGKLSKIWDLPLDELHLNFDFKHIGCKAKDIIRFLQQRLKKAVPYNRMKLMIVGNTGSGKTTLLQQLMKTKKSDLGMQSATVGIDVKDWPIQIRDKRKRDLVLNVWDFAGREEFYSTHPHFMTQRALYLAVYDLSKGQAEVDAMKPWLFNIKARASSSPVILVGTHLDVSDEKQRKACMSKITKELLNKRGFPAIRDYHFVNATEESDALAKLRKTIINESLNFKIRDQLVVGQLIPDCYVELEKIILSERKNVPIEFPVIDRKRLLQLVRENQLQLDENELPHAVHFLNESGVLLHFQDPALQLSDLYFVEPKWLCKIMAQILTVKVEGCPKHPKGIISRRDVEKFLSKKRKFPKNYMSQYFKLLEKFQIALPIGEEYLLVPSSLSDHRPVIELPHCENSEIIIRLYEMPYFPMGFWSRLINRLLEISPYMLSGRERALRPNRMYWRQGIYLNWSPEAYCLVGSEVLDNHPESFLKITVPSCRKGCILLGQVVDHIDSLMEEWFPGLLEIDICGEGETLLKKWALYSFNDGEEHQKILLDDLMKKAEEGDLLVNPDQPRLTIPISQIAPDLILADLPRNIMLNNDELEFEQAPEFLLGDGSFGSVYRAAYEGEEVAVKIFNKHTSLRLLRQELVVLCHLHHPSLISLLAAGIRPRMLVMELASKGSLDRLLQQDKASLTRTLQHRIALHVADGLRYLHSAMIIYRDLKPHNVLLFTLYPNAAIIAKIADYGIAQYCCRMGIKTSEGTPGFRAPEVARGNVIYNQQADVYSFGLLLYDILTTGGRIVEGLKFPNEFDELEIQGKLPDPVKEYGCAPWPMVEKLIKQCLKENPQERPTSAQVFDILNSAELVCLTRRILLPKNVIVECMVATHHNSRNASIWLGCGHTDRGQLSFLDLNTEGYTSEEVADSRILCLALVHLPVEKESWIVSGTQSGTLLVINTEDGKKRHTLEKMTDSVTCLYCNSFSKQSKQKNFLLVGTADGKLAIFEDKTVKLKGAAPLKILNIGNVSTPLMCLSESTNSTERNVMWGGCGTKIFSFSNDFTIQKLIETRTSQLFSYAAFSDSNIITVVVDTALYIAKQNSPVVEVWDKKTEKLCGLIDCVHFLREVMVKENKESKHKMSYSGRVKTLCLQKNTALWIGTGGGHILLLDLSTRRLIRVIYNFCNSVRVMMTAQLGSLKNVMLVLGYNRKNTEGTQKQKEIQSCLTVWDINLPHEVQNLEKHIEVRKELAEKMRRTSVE

phosphorylated LRRK2 (pS935-LRRK2) level: significant dose-dependent loss
SMILES: N#Cc1cccc(-c2c[nH]c3ncnc(N4CCOCC4)c23)c1 [PF-475]
